Data taken from the supplement of paper PMC11451515.

Test system: NOMO1
Assay: cell viability relative to DMSO control; higher = less cytotoxic
Conditions: 48 h
In short: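 Leukemia cells (NOMO1 or SEM, 500 cells/well; P12-Ichikawa, 1000 cells/well) were seeded in 5 μl in 1536-well plates after at least four passages of adaptation to each medium. They received library compounds in DMSO by pin dosing, 11 threefold points from 47 μM to 0.79 nM. Luminescence with CellTiter-Glo One was read after 48 h at 37°C. Viability is stated per plate relative to DMSO wells, with cell-free wells as background.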

[1] = HPLM + 10% dialyzed FBS, 0.000781 µM
[2] = HPLM + 10% dialyzed FBS, 0.00234 µM
[3] = HPLM + 10% dialyzed FBS, 0.00702 µM
[4] = HPLM + 10% dialyzed FBS, 0.0211 µM
[5] = HPLM + 10% dialyzed FBS, 0.0632 µM
[6] = HPLM + 10% dialyzed FBS, 0.19 µM
[7] = HPLM + 10% dialyzed FBS, 0.569 µM
[8] = HPLM + 10% dialyzed FBS, 1.71 µM
[9] = HPLM + 10% dialyzed FBS, 5.12 µM
[10] = HPLM + 10% dialyzed FBS, 15.4 µM
[11] = HPLM + 10% dialyzed FBS, 46.1 µM
[12] = RPMI 5 mM glucose + 10% FBS, 0.000781 µM
[13] = RPMI 5 mM glucose + 10% FBS, 0.00234 µM
[14] = RPMI 5 mM glucose + 10% FBS, 0.00702 µM
[15] = RPMI 5 mM glucose + 10% FBS, 0.0211 µM
[16] = RPMI 5 mM glucose + 10% FBS, 0.0632 µM
[17] = RPMI 5 mM glucose + 10% FBS, 0.19 µM
[18] = RPMI 5 mM glucose + 10% FBS, 0.569 µM
[19] = RPMI 5 mM glucose + 10% FBS, 1.71 µM
[20] = RPMI 5 mM glucose + 10% FBS, 5.12 µM
[21] = RPMI 5 mM glucose + 10% FBS, 15.4 µM
[22] = RPMI 5 mM glucose + 10% FBS, 46.1 µM
[23] = RPMI 5 mM glucose + 10% dialyzed FBS, 0.000781 µM
[24] = RPMI 5 mM glucose + 10% dialyzed FBS, 0.00234 µM
[25] = RPMI 5 mM glucose + 10% dialyzed FBS, 0.00702 µM
[26] = RPMI 5 mM glucose + 10% dialyzed FBS, 0.0211 µM
[27] = RPMI 5 mM glucose + 10% dialyzed FBS, 0.0632 µM
[28] = RPMI 5 mM glucose + 10% dialyzed FBS, 0.19 µM
[29] = RPMI 5 mM glucose + 10% dialyzed FBS, 0.569 µM
[30] = RPMI 5 mM glucose + 10% dialyzed FBS, 1.71 µM
[31] = RPMI 5 mM glucose + 10% dialyzed FBS, 5.12 µM
[32] = RPMI 5 mM glucose + 10% dialyzed FBS, 15.4 µM
[33] = RPMI 5 mM glucose + 10% dialyzed FBS, 46.1 µM

SMILES	cell viability [1] [%]	cell viability [2] [%]	cell viability [3] [%]	cell viability [4] [%]	cell viability [5] [%]	cell viability [6] [%]	cell viability [7] [%]	cell viability [8] [%]	cell viability [9] [%]	cell viability [10] [%]	cell viability [11] [%]	cell viability [12] [%]	cell viability [13] [%]	cell viability [14] [%]	cell viability [15] [%]	cell viability [16] [%]	cell viability [17] [%]	cell viability [18] [%]	cell viability [19] [%]	cell viability [20] [%]	cell viability [21] [%]	cell viability [22] [%]	cell viability [23] [%]	cell viability [24] [%]	cell viability [25] [%]	cell viability [26] [%]	cell viability [27] [%]	cell viability [28] [%]	cell viability [29] [%]	cell viability [30] [%]	cell viability [31] [%]	cell viability [32] [%]	cell viability [33] [%]
CN1CCC[C@@H]1CCO[C@](C)(c1ccccc1)c1ccc(Cl)cc1	96	112	95.7	102	112	109	119	107	110	112	95.2	100	105	101	110	107	105	100	109	114	115	103	93.3	112	105	97.2	117	108	104	102	104	112	87.8
CCOC(=O)c1cncn1[C@H](C)c1ccccc1												118	116	135	128	112	115	121	127	117	119	125											
C[C@]12CC[C@@H]3c4ccc(O)cc4CC[C@H]3[C@@H]1C[C@@H](O)[C@@H]2O												116	114	106	114	114	107	123	117	118	118	115	115	121	129	125	120	110	114	113	110	105	95.9
Cc1cc(Nc2cc(CN3CCOCC3)c3nc(C)c(Cc4ccc(Cl)cc4F)n3n2)[nH]n1	114	121	130	114	137	115	101	110	99.7	53.5	48.3	103	98.2	103	111	95.4	114	94	94.7	91.7	36.7	28.2	102	111	119	115	115	106	109	97.3	92	45	34.3
O=C(c1ccc(F)c(F)c1Nc1ccc(I)cc1F)N1CC(O)([C@@H]2CCCCN2)C1	96.3	91.9	97.4	108	90.9	70.1	56.4	41.8	15.1	13.3	14.3	91.4	99.9	98.2	93.4	92.5	74.1	61.8	29.1	8.07	7.33	5.28	89.4	99	93.9	102	100	69.7	58.6	44.1	10.1	10.2	11.6
C[C@]12CC[C@H]3[C@@H](C\C=C/4C[C@@H](O)CC[C@]34C)[C@@H]1CCC2=O	115	134	117	121	147	117	111	110	103	110	84.7	116	126	116	104	116	105	121	112	117	103	98	120	108	115	119	118	106	114	108	103	109	106
COc1cc([C@H]2Oc3cc([C@H]4Oc5cc(O)cc(O)c5C(=O)[C@@H]4O)ccc3O[C@@H]2CO)ccc1O	103	122	119	126	120	123	125	95.9	106	119	82	105	124	118	110	114	116	111	100	111	115	103	104	121	115	119	118	100	102	109	106	110	101
O=C(Oc1ccc([N+](=O)[O-])cc1)N1CCC(C(O)(c2ccc3c(c2)OCO3)c2ccc3c(c2)OCO3)CC1	102	95.5	93	119	107	92.3	107	88.5	85.3	89.8	58.4	87.7	87.7	83	91.8	96.6	90.1	86.2	86.3	88.3	88.4	89.2	73.1	73.3	86	80.4	90.3	77.9	84.2	71	65.6	74.6	74.5
CN1CCN2c3ncccc3Cc3ccccc3C2C1 (centres undefined)	121	112	141	118	138	114	123	135	33.4	98.9	108	101	105	110	112	103	103	116	110	29.5	98.8	112											
COc1cc2c(Nc3ccc(Br)cc3F)ncnc2cc1OCC1CCN(C)CC1	93.2	93.5	88.9	90.1	75	85.5	81	71	74.8	31.5	69.8	79	81.7	76.5	75.5	75.4	78.1	77	79.7	90.3	72.6	73	82.4	79.1	82.2	88.4	88.2	85.2	86.8	70.7	88.6	41.1	84.4
CN1\C(=C(\O)C2=C(C=CC=C2)[S+]1([O-])=O)C(=O)NC3=CC=CC=N3	107	138	110	122	122	129	105	107	102	58.2	29.1	109	101	108	116	117	123	113	109	123	43.9	21.2	87.5	103	100	100	113	99.2	116	94.6	99.6	108	35.3
Nc1nnc(-c2cccc(Cl)c2Cl)c(N)n1	95.9	89.7	97.6	33	107	113	112	98.9	121	108	115	89.2	86.6	93.5	23.7	112	96.5	88.4	96.1	102	95.2	102	76	89.2	94	43.7	96.2	93.1	99	108	103	98.6	99.1
CN(C)CCOc1ccc(-c2nc(-c3ccncc3)c(-c3ccc4c(c3)CC/C4=N\O)[nH]2)cc1	98.1	113	102	110	127	129	129	107	95.3	95.2	62.9	97	101	95	104	118	112	97.2	95.5	104	86.9	81.4	108	105	121	106	119	121	115	106	85.5	85.4	53.8
N[S+](=O)([O-])c1cccc2c1C(=O)c1cccc(O)c1C2=O	105	115	112	105	119	106	107	85	91.6	78.7	4.98	110	101	103	98.5	115	107	91.9	94.9	88.2	97.1	3.99	97.6	104	97.3	103	102	107	108	94.9	94.3	82.9	4.93
NCCCCNCCCN	110	101	119	112	109	95.3	116	121	105	67.1	26.7	108	99.6	98.2	104	99.4	104	94.8	99.1	105	103	27.7	107	104	111	107	107	105	110	115	119	109	35.4
CN(C)c1nc(Cc2ccc(NC(=O)c3ccc4ccccc4c3)cc2)nc(Cl)c1CC(=O)O	113	116	112	126	114	90.9	106	65.2	57.6	47.2	48.1	115	98.2	100	98.3	100	97	97.1	74.3	73	61.8	44.4	108	110	98.6	106	111	99.4	92.9	62.1	63.1	60.7	43.6
